Patent US12577245B2, “Sulfonyl benzamide derivatives as Bcl-2 inhibitors” (ASCENTAGE PHARMA (SUZHOU) CO., LTD., priority 2021, dated 2026)

Target: Bcl-2 G101V (Homo sapiens, UniProt P10415, G101V)
Experiment: Bcl-2 G101V inhibition, fluorescence polarization (Flu-BIM tracer) binding assay
Details: FP; 20 nM Bcl2, 5 nM Flu-BIM, 1 h incubation; read-out: Bcl-2 G101V (FP)

| Compound | IC50 [nM] |
| --- | --- |
| [2H]C([2H])([2H])C(O)(c1cc(F)c(-c2csc(C3=C(CN4CCN(c5ccc(C(=O)NS(=O)(=O)c6ccc(NC[C@H]7CC[C@](C)(O)CC7)c([N+](=O)[O-])c6)c(Oc6cnc7[nH]ccc7c6)c5)CC4)CCC(C)(C)C3)c2)c(F)c1)C([2H])([2H])[2H] [Example 68, 2-((1H-pyrrolo[2,3-b]pyridin-5-yl)oxy)-4-(4-((2-(4-(2,6-difluoro-4-(2-hydroxypropan-2-yl-1,1,1,3,3,3-d6)phenyl)thiophen-2-yl)-4,4-dimethylcyclohex-1-en-1-yl)methyl)piperazin-1-yl)-N-((4-((((1r,4r)-4-hydroxy-4-methylcyclohexyl)methyl)amino)-3-nitrophenyl)sulfonyl)benzamide] | 27.8 |
| CC1(C)CCC(CN2CCN(c3ccc(C(=O)NS(=O)(=O)c4ccc(NC[C@H]5CC[C@](C)(O)CC5)c([N+](=O)[O-])c4)c(Oc4cnc5[nH]ccc5c4)c3)CC2)=C(c2cc(-c3c(F)cc(C(C)(O)C4CC4)cc3F)cs2)C1 (some centres unmarked) [Example 69, 2-((1H-pyrrolo[2,3-b]pyridin-5-yl)oxy)-4-(4-((2-(4-(4-(1-cyclopropyl-1-hydroxyethyl)-2,6-difluorophenyl)thiophen-2-yl)-4,4-dimethylcyclohex-1-en-1-yl)methyl)piperazin-1-yl)-N-((4-((((1r,4r)-4-hydroxy-4-methylcyclohexyl)methyl)amino)-3-nitrophenyl)sulfonyl)benzamide] | 29 |
| CC1(C)CCC(CN2CCN(c3ccc(C(=O)NS(=O)(=O)c4ccc(NC[C@H]5CC[C@](C)(O)CC5)c([N+](=O)[O-])c4)c(Oc4cnc5[nH]ccc5c4)c3)CC2)=C(c2cc(-c3cccc(C(C)(C)O)c3)cs2)C1 [Example 70, 2-((1H-pyrrolo[2,3-b]pyridin-5-yl)oxy)-N-((4-((((1r,4r)-4-hydroxy-4-methylcyclohexyl)methyl)amino)-3-nitrophenyl)sulfonyl)-4-(4-((2-(4-(3-(2-hydroxypropan-2-yl)phenyl)thiophen-2-yl)-4,4-dimethylcyclohex-1-en-1-yl)methyl)piperazin-1-yl)benzamide] | 36.9 |
| CC1(C)CCC(CN2CCN(c3ccc(C(=O)NS(=O)(=O)c4ccc(NC[C@H]5CC[C@](C)(O)CC5)c([N+](=O)[O-])c4)c(Oc4cnc5[nH]ccc5c4)c3)CC2)=C(c2cc(-c3ccc(C(C)(C)O)c(F)c3)cs2)C1 [Example 71, 2-((1H-pyrrolo[2,3-b]pyridin-5-yl)oxy)-4-(4-((2-(4-(3-fluoro-4-(2-hydroxypropan-2-yl)phenyl)thiophen-2-yl)-4,4-dimethylcyclohex-1-en-1-yl)methyl)piperazin-1-yl)-N-((4-((((1r,4r)-4-hydroxy-4-methylcyclohexyl)methyl)amino)-3-nitrophenyl)sulfonyl)benzamide] | 20.3 |
| CC(CO)c1ccc(-c2csc(C3=C(CN4CCN(c5ccc(C(=O)NS(=O)(=O)c6ccc(NC[C@H]7CC[C@](C)(O)CC7)c([N+](=O)[O-])c6)c(Oc6cnc7[nH]ccc7c6)c5)CC4)CCC(C)(C)C3)c2)c(F)c1 (some centres unmarked) [Example 72, 2-((1H-pyrrolo[2,3-b]pyridin-5-yl)oxy)-4-(4-((2-(4-(2-fluoro-4-(1-hydroxypropan-2-yl)phenyl)thiophen-2-yl)-4,4-dimethylcyclohex-1-en-1-yl)methyl)piperazin-1-yl)-N-((4-((((1r,4r)-4-hydroxy-4-methylcyclohexyl)methyl)amino)-3-nitrophenyl)sulfonyl)benzamide] | 27 |
| CC(C)(O)Cc1ccc(-c2csc(C3=C(CN4CCN(c5ccc(C(=O)NS(=O)(=O)c6ccc(NC[C@H]7CC[C@](C)(O)CC7)c([N+](=O)[O-])c6)c(Oc6cnc7[nH]ccc7c6)c5)CC4)CCC(C)(C)C3)c2)c(F)c1 [Example 73, 2-((1H-pyrrolo[2,3-b]pyridin-5-yl)oxy)-4-(4-((2-(4-(2-fluoro-4-(2-hydroxy-2-methylpropyl)phenyl)thiophen-2-yl)-4,4-dimethylcyclohex-1-en-1-yl)methyl)piperazin-1-yl)-N-((4-((((1r,4r)-4-hydroxy-4-methylcyclohexyl)methyl)amino)-3-nitrophenyl)sulfonyl)benzamide] | 25.2 |
| CC1(C)CCC(CN2CCN(c3ccc(C(=O)NS(=O)(=O)c4ccc(NC[C@H]5CC[C@](C)(O)CC5)c([N+](=O)[O-])c4)c(Oc4cnc5[nH]ccc5c4)c3)CC2)=C(c2cc(-c3c(F)cc(C(C)(C)CO)cc3F)cs2)C1 [Example 74, 2-((1H-pyrrolo[2,3-b]pyridin-5-yl)oxy)-4-(4-((2-(4-(2,6-difluoro-4-(1-hydroxy-2-methylpropan-2-yl)phenyl)thiophen-2-yl)-4,4-dimethylcyclohex-1-en-1-yl)methyl)piperazin-1-yl)-N-((4-((((1r,4r)-4-hydroxy-4-methylcyclohexyl)methyl)amino)-3-nitrophenyl)sulfonyl)benzamide] | 30.2 |
| CC1(C)CCC(CN2CCN(c3ccc(C(=O)NS(=O)(=O)c4ccc(NC[C@H]5CC[C@](C)(O)CC5)c([N+](=O)[O-])c4)c(Oc4cnc5[nH]ccc5c4)c3)CC2)=C(c2cc(-c3cc(C(C)(C)O)ccc3F)cs2)C1 [Example 75, 2-((1H-pyrrolo[2,3-b]pyridin-5-yl)oxy)-4-(4-((2-(4-(2-fluoro-5-(2-hydroxypropan-2-yl)phenyl)thiophen-2-yl)-4,4-dimethylcyclohex-1-en-1-yl)methyl)piperazin-1-yl)-N-((4-((((1r,4r)-4-hydroxy-4-methylcyclohexyl)methyl)amino)-3-nitrophenyl)sulfonyl)benzamide] | 34.3 |
| CC1(C)CCC(CN2CCN(c3ccc(C(=O)NS(=O)(=O)c4ccc(NC[C@H]5CC[C@](C)(O)CC5)c([N+](=O)[O-])c4)c(Oc4cnc5[nH]ccc5c4)c3)CC2)=C(c2cc(-c3ccc(C(C)(O)C(F)(F)F)cc3F)cs2)C1 (some centres unmarked) [Example 78, 2-((1H-pyrrolo[2,3-b]pyridin-5-yl)oxy)-4-(4-((2-(4-(2-fluoro-4-(1,1,1-trifluoro-2-hydroxypropan-2-yl)phenyl)thiophen-2-yl)-4,4-dimethylcyclohex-1-en-1-yl)methyl)piperazin-1-yl)-N-((4-((((1r,4r)-4-hydroxy-4-methylcyclohexyl)methyl)amino)-3-nitrophenyl)sulfonyl)benzamide] | 33.2 |
| CC1(C)CCC(CN2CCN(c3ccc(C(=O)NS(=O)(=O)c4ccc(NC[C@H]5CC[C@](C)(O)CC5)c([N+](=O)[O-])c4)c(Oc4cnc5[nH]ccc5c4)c3)CC2)=C(c2cc(-c3ccc4c(c3)CCC4(C)O)cs2)C1 (some centres unmarked) [Example 79, 2-((1H-pyrrolo[2,3-b]pyridin-5-yl)oxy)-4-(4-((2-(4-(1-hydroxy-1-methyl-2,3-dihydro-1H-inden-5-yl)thiophen-2-yl)-4,4-dimethylcyclohex-1-en-1-yl)methyl)piperazin-1-yl)-N-((4-((((1r,4r)-4-hydroxy-4-methylcyclohexyl)methyl)amino)-3-nitrophenyl)sulfonyl)benzamide] | 22.1 |
| CC(=O)NC(C)(C)c1cc(F)c(-c2csc(C3=C(CN4CCN(c5ccc(C(=O)NS(=O)(=O)c6ccc(NC[C@H]7CC[C@](C)(O)CC7)c([N+](=O)[O-])c6)c(Oc6cnc7[nH]ccc7c6)c5)CC4)CCC(C)(C)C3)c2)c(F)c1 [Example 80, 2-((1H-pyrrolo[2,3-b]pyridin-5-yl)oxy)-4-(4-((2-(4-(4-(2-acetamidopropan-2-yl)-2,6-difluorophenyl)thiophen-2-yl)-4,4-dimethylcyclohex-1-en-1-yl)methyl)piperazin-1-yl)-N-((4-((((1r,4r)-4-hydroxy-4-methylcyclohexyl)methyl)amino)-3-nitrophenyl)sulfonyl)benzamide] | 23.4 |
